Values quoted from earlier work, collected in patent US20250019557A1, “INK SET AND INKJET RECORDING APPARATUS” (KYOCERA Document Solutions Inc., priority 2023, published 2025).

Conditions: octanol/water partition coefficient; literature value, or calculated where none exists

Row | Structure (SMILES) | LogP
1 | CC(O)CO (stereo not shown) [1,2-Propanediol] | −0.92
2 | OCCCO [1,3-Propanediol] | −1.04
3 | CC(CCO)CCO [3-Methyl-1,5-pentanediol] | 0.35
4 | CCCCOCCOCCOCCO [Triethylene glycol monobutyl ether] | 0.44
